# Data taken from patent US20260151376A1, “COMBINATION THERAPY FOR THE TREATMENT OF CANCER” (INSTITUT NATIONAL DE LA SANTÉ ET DE LA RECHERCHE MÉDICALE, priority 2022, published 2026).
# Assays:
# [1] = system: CT26 tumors; test: CT26 allografts experiment, HA15 and anti-PD1 (Example 1); format: in vivo; details: single treatment; CT26 allograft in BALB/c mice; HA15 0.7 mg/mouse/day IP; anti-PD1 4 injections of 0.125 mg/mouse
# Description: FIG. 1: CT26 cells (5.104) are injected subcutaneously in Balb/C mice. As soon as the tumors reach 50 mm^3, mice are randomly distributed into different experimental groups and treated daily (intraperitoneal) with Vehicle or HA15 (35 mg/kg) and twice a week during two weeks with anti-PD1 (6.25 mg/kg) or PBS. A: Individual tumor growth curves. B: Survival curves. Mice are euthanized when their tumor reach 800 mm^3. A log-rang (Mantel Cox) test was performed to compare statistically the survival in the different experimental groups. Ns=non-significant, *: p≤0.05, **: p≤0.01, ***: p≤0.001.
# CT26 Allografts Experiment Female BALB/cOlaHsd mice were obtained at 5 weeks of age from Envigo Laboratory. One week later, these mice were inoculated subcutaneously with CT26 cells (5×10^5 cells/mouse). As soon as its tumor reach 50 mm^3, each mouse was allocated in the different experimental group following a randomization table created with the “Graphpad Quickcalcs” tool (7 mice/group). […] Tumor volumes were determined using the equation Volume=(Length×(Width)^2)/2. […]
# [2] = system: CHOP; test: Intra-tumoral proteins analysis by western blot: CHOP; format: in vivo, mice
# [3] = system: IFNγ; test: Intra-tumoral proteins analysis by western blot and ELISA: IFNγ; format: in vivo, mice
# Description: FIG. 2: HA15 induces in vivo the expression of CHOP and IFNg in mice tumors: tumors were harvested from the mice after HA15 treatment and crushed into lysis buffer to get protein lysates. (A). Tumor lysates were analyzed by western blotting with CHOP, IFNγ and HSP90 antibodies. Densitometric analyses were then performed on the radiogram presented here thanks to the ImageJ (Fiji) program. The signal intensity of the target protein is weighted by that of the HSP90 control. (B) The intra-tumoral […] was dosed in the lysates by a Mouse IFN-g ELISA kit. Mann-Whitney test was performed to compare statistically the protein expressions in the two different groups.
# Pieces of tumor were crushed thanks to the “Precellys 24 Tissue Homogenizer” into CK Mix Tubes (#P000918-LYSK0, Bertin Technologies) in presence of protein lysis buffer containing 50 mmol/l Tris-HCl (pH 7.5), 15 mmol/l, NaCl, 1% Triton X-100, and 1× protease and phosphatase inhibitors. Tumor lysates were then centrifuged to remove cells debris.
# For western Blot, tumor lysates are prepared in Laemmli buffer. Briefly, tumor lysates (30 μg) were separated by SDS-PAGE, transferred onto a polyvinylidene fluoride membrane (Millipore), and then exposed to the appropriate antibodies. The antibody directed against IFN-gamma was purchased from Abcam (ab133566). Proteins were visualized with the ECL System from Amersham. […]
# [4] = system: CT26 tumors; test: CT26 tumor model, oral HA15 and anti-PDL1 (Example 2); format: in vivo, mice
# Description: Mice: A total of 60 female BALB/C mice aged 5 weeks and weighted between 15-19 g, were ordered from Envigo. These had one week of acclimatation in C3M animal facility. Animals were housed in IVC cages (5 per cage) with individual mice identified by ear tag. All animals were allowed free access to a standard certified commercial diet and sanitised water during the study. The holding room was maintained under standard conditions: 18-24° C., 55-70% humidity and a 12h light/dark cycle. One week before dosing start, 2 animals died while blood sampling.
# 58 Mice were randomly assigned into the following treatment groups:
# Cells: CT26 cell lines were thawed 2 weeks before mice arrival. These were cultured in RPMI medium supplemented with 10% FBS, 1% Penicillin/streptomycin and 2% sodium pyruvate. Cells were expanded 48 hrs prior to the subcutaneous injection in 5×T175 flasks at concentration of 0.8×10^6 cells. This concentration allows cells to be 70-80% confluency at the day of the injection. Briefly, cells were washed with PBS, detached from the flasks using 3 ml of trypsin, collected with RPMI medium and centrifuged at 300 g for 5 min. These were then resuspended in PBS, counted and 0.5×10^6 cells/mouse ([…] in total for 80 mice) were taken and re-centrifuged to be resuspended in 100 μl/mouse of PBS ready to be subcutaneously injected (8 ml in total for 80 mice). […]
# [5] = liver, after HA15 treatment (data not shown)
smiles,measurement,setting,value
CC(=O)Nc1nc(-c2cccc(NS(=O)(=O)c3cccc4c(N(C)C)cccc34)c2)cs1 [HA15],complete response,[1],14%
same,CHOP expression,"[2]; CT26 tumors harvested after HA15 treatment, western blot",induces
same,CHOP expression,[2]; [5],no variation
same,IFNγ expression,"[3]; CT26 tumors harvested after HA15 treatment, western blot and ELISA",induces
same,IFNγ expression,[3]; [5],no variation
same,tumor volume,"[4]; after 13 days of daily oral administration, statistically significant compared with vehicle group",decreased
same,tumor weight,"[4]; after mice termination at day 13, confirms the reduction in tumor growth",confirmed
